Data on one compound can be found in PMC5650530 (ACS chemical biology, 2017).

The target in assay [1] is T1, PTGR2 (Homo sapiens, UniProt Q8N8N7). As to the kind of experiment: 15-keto PGE2 substrate assay with recombinant PTGR2 protein. It is filed as biochemical. As to conditions: read-out: IC50, inhibition of dhk-PGE2 production, 15-keto PGE2 and NADPH, 95% CI 4.4–16 μM.
Target sequence in this assay (Q8N8N7 whole entry): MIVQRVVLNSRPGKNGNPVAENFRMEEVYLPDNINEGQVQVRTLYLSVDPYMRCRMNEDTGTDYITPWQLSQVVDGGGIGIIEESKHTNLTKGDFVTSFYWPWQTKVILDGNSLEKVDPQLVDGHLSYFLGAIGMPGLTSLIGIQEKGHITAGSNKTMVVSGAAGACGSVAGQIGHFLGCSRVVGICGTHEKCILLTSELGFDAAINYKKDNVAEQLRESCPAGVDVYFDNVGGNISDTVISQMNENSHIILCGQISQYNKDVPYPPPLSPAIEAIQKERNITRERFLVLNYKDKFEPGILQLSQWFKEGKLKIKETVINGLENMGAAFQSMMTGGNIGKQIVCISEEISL
Assay [2] addresses T2, BAIAP2 (Homo sapiens, UniProt Q9UQB8).
T2 sequence (Q9UQB8 1-552): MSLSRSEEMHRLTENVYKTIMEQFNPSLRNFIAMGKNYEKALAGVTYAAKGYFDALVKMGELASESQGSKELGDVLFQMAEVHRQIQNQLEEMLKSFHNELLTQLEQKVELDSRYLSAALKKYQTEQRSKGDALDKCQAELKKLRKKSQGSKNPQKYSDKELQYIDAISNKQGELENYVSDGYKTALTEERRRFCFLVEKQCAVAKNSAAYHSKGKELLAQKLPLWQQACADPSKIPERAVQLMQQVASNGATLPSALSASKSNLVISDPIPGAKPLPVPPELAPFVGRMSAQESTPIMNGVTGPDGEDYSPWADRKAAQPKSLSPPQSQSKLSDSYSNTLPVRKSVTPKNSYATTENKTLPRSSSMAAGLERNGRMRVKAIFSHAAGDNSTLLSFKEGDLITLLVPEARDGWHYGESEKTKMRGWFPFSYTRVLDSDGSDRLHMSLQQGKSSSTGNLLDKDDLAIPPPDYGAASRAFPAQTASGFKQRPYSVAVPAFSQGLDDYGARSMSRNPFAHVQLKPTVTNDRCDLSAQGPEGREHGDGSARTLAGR
As to the kind of experiment: LiPIP. It counts as binding. Conditions: KDT501 25 and 50 μM; A-DA or AEA-DA probe 10 μM; HEK293T cells.

Assay [3] relates to PPAR-γ. As to conditions: cited from earlier work.
The target of assay [4] is T1, PTGR2. Nature of the assay: LiPIP. It is filed as binding. Conditions: KDT501 25 and 50 μM; A-DA or AEA-DA probe 10 μM; HEK293T cells.
Target sequence in this assay (Q8N8N7 whole entry): as the sequence (Q8N8N7 whole entry) above
For assay [5] the following is noted: reference not given; cited from earlier work.
Assay [6] concerns the target T1, PTGR2. Nature of the assay: 15-keto PGE2 reductase activity of PTGR2-transfected HEK293T cell lysates. It is filed as biochemical. Conditions: read-out: IC50, inhibition of 15-keto PGE2 reductase activity; lysates from HEK293T cells transfected with PTGR2; 95% CI 1.4–2.4 μM.
Target sequence in this assay (Q8N8N7 whole entry, species assumed): as the sequence (Q8N8N7 whole entry) above
Assay [7] addresses T1, PTGR2. It counts as binding. Conditions: read-out: IC50, blockade of A-DA probe labeling of recombinant PTGR2; transfected cell lysates; A-DA 5 μM; 95% CI 3.0–5.3 μM.
Target sequence in this assay (Q8N8N7 whole entry, species assumed): as the sequence (Q8N8N7 whole entry) above

pIC50: −log10 of the molar value. Where two headings read alike, the source gives them in different places.

For the compound `CC(C)CCC(=O)[C@]1(O)C(=O)[C-](C(=O)CC(C)C)C(=O)[C@H]1CCC(C)C.[K+]` (stereo partly shown) [KDT501], the negative-log IC50 (pIC50) (in general, the negative decadic logarithm of the IC50, by convention in mol/L) is 5.08 in assay [1], 5.74 in assay [6] and 5.40 in assay [7]. Besides, the “blockade of lipid probe enrichment of BAIAP2” value in assay [2] is given as “substantive blockade of enrichment”. For the same compound, the “agonism of PPAR-γ” value in assay [3] is on record as “weak agonist”. Besides, the “blockade of lipid probe enrichment of PTGR2” value in assay [4] is given as “substantive blockade of enrichment”. Also, the “moderately potent activity in cells (concentration)” value in assay [5] is 10 to 50 µM.
